Assay results taken from ChEMBL document CHEMBL1221332, “[3-azabicyclo[3.1.0]hex-1-yl]phenyl-benzenesulfonamides as selective dopamine D3 antagonists” (Bioorg Med Chem Lett, 2010).

Legend:
D(3) dopamine receptor = D(3) dopamine receptor (Homo sapiens, UniProt P35462); test: Antagonist activity at dopamine D3 receptor by GTPgammaS binding assay; format: functional
D(2) dopamine receptor = D(2) dopamine receptor (Homo sapiens, UniProt P14416)
Description: Antagonist activity at dopamine D2 receptor by GTPgammaS binding assay

[1] = target: Voltage-gated inwardly rectifying potassium channel KCNH2 (Homo sapiens, UniProt Q12809)
Voltage-gated inwardly rectifying potassium channel KCNH2, sequence (Q12809 whole entry): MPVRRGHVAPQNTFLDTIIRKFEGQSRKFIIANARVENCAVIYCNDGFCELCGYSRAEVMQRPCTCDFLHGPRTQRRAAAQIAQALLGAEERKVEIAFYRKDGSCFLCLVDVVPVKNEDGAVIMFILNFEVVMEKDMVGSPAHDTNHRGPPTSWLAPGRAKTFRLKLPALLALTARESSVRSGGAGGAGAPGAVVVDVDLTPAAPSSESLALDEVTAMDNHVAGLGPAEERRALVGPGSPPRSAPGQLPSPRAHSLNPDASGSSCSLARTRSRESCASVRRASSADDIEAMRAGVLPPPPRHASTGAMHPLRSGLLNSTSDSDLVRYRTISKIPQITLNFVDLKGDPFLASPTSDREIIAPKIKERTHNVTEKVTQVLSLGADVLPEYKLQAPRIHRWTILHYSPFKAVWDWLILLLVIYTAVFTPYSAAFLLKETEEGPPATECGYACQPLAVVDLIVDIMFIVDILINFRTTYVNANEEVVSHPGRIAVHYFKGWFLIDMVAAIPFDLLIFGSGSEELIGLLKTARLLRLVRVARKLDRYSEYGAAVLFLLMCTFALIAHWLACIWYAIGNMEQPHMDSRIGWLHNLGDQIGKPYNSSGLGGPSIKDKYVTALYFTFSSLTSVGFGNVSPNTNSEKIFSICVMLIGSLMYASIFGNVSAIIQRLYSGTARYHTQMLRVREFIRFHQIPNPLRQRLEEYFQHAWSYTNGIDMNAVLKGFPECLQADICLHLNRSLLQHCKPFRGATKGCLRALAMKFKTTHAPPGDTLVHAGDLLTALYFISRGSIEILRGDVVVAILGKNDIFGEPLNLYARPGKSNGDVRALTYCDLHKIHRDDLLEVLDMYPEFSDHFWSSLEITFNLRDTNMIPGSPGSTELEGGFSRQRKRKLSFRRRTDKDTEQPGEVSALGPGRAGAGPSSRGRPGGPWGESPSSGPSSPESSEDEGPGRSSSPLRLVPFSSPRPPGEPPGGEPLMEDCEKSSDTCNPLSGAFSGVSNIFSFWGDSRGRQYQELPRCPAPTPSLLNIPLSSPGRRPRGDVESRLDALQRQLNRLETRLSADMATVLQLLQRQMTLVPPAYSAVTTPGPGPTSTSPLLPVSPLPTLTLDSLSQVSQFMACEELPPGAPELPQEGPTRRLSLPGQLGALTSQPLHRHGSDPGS

[2] = Ratio of drug level in brain to plasma in rat; format: ADME

D(3) dopamine receptor, sequence (P35462 whole entry): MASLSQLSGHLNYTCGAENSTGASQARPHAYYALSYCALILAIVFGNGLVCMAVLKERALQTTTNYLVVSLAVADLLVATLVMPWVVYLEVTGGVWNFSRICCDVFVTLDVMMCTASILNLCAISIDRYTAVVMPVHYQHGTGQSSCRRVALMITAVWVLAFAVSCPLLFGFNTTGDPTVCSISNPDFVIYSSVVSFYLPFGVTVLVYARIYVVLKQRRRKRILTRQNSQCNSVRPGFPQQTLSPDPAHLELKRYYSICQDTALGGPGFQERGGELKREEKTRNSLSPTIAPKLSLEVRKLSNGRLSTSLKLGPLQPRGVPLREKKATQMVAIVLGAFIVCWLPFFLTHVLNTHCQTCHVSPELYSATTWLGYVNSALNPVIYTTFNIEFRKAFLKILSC
D(2) dopamine receptor, sequence (P14416 whole entry): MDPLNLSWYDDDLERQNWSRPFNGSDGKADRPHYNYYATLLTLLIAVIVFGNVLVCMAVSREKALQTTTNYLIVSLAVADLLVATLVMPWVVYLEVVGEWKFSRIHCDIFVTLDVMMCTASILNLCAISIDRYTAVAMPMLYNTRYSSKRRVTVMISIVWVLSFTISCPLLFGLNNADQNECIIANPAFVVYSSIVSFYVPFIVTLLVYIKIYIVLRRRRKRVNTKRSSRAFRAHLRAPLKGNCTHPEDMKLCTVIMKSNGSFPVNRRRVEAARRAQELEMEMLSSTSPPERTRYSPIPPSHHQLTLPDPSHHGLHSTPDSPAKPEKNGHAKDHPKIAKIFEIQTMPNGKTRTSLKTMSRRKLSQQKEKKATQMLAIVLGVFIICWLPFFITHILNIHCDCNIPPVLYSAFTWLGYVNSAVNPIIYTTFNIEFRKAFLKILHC

Ki (D(3) dopamine receptor) | Ki (D(2) dopamine receptor) | Kp [2] | SMILES | IC50 [1]
6.31 nM | 50.1 nM |  | CCC(C)(C)c1ccc(S(=O)(=O)Nc2ccc([C@]34CNC[C@H]3C4)cc2)cc1 | 
251 nM | > 3160 nM |  | O=S(=O)(Nc1ccc([C@]23CNC[C@H]2C3)cc1)c1ccc(C(F)(F)F)cc1 | 794 nM
3.98 nM |  |  | CC(C)c1ccc(S(=O)(=O)Nc2ccc(C34CNCC3C4)cc2)cc1 (single isomer, unassigned; enantiomer 1) | 5010 nM
200 nM |  |  | CC(C)c1ccc(S(=O)(=O)Nc2ccc(C34CNCC3C4)cc2)cc1 (single isomer, unassigned; enantiomer 2) | 1580 nM

Second part, the compound before the results:

SMILES | Ki (D(3) dopamine receptor) | Ki (D(2) dopamine receptor) | Kp [2] | IC50 [1]
CC(C)c1ccc(S(=O)(=O)Cc2ccc([C@]34CNC[C@H]3C4)cc2)cc1 | 25.1 nM | 316 nM |  | 1260 nM
CN(c1ccc([C@]23CNC[C@H]2C3)cc1)S(=O)(=O)c1ccccc1 | 79.4 nM | 501 nM |  | > 63100 nM
CC(C)c1ccc(CS(=O)(=O)c2ccc([C@]34CNC[C@H]3C4)cc2)cc1 | 25.1 nM | > 3160 nM |  | 3160 nM
CCCCc1ccc(S(=O)(=O)Nc2ccc([C@]34CNC[C@H]3C4)cc2)cc1 | 5.01 nM | 126 nM |  | 
CC(C)c1ccc(S(=O)(=O)Nc2ccc([C@@]34C[C@@H]3CN(C)C4)cc2)cc1 | 6.31 nM | 63.1 nM | 7.3 | 1580 nM
CCN1C[C@H]2C[C@@]2(c2ccc(NS(=O)(=O)c3ccc(C(C)C)cc3)cc2)C1 | 7.94 nM | 100 nM |  | 1260 nM
C=CCN1C[C@H]2C[C@@]2(c2ccc(NS(=O)(=O)c3ccc(C(C)C)cc3)cc2)C1 | 2.51 nM | 63.1 nM |  | 100 nM
COc1cc([C@]23CNC[C@H]2C3)ccc1NS(=O)(=O)c1ccc(C(C)C)cc1 |  | 50.1 nM |  | 
O=S(=O)(Nc1ccc([C@]23CNC[C@H]2C3)cc1)c1ccc(OC(F)(F)F)cc1 | 631 nM | 1000 nM |  | 10000 nM
CC(C)c1ccc(S(=O)(=O)Nc2ccc([C@]34CNC[C@H]3C4)cc2)cc1 (racemic) | 2.51 nM |  |  | 1000 nM
